Data: ChEMBL document CHEMBL1781930, “Facile transformation of Biginelli pyrimidin-2(1H)-ones to pyrimidines. In vitro evaluation as inhibitors of Mycobacterium tuberculosis and modulators of cytostatic activity” (Eur J Med Chem, 2011)
Converted amounts (≈) assume the structure as drawn. The source made the active and inactive calls. No cut-off for these calls is given here.

Legend:
CCRF-CEM = assay: Cytostatic activity against human CEM cells assessed as inhibition of cell proliferation after 3 days by particle counter assay; format: functional, cell-based; details: 72 h
[1] = test system: Human immunodeficiency virus; assay: Antiviral activity against HIV at subtoxic concentration; format: functional, organism-based
HeLa = assay: Cytostatic activity against human HeLa cells assessed as inhibition of cell proliferation after 3 days by particle counter assay; format: functional, cell-based; details: 72 h
FM3A = assay: Cytostatic activity against mouse FM3A cells assessed as inhibition of cell proliferation after 2 days by particle counter assay; format: functional, cell-based; details: 48 h
L1210 = assay: Cytostatic activity against mouse L1210 cells assessed as inhibition of cell proliferation after 2 days by particle counter assay; format: functional, cell-based; details: L1210, 48 h
[2] = Cytotoxicity against cat CRFK cells; format: cell-based, Felis catus
[3] = Cytotoxicity against human embryonic lung cells; format: cell-based
[4] = test system: Mycobacterium tuberculosis; assay: Antimycobacterial activity against Mycobacterium tuberculosis H37Rv ATCC 27294 at […] after 7 days by microplate alamar blue assay; format: functional; details: H37Rv ATCC 27294, 168 h
[5] = test system: Mycobacterium tuberculosis; assay: Antimycobacterial activity against Mycobacterium tuberculosis H37Rv ATCC 27294 after 7 days by microplate alamar blue assay; format: functional; details: H37Rv ATCC 27294, 168 h

Row | Compound | IC50 (CCRF-CEM) [µM] | Activity [1] | IC50 (HeLa) [µM] | IC50 (FM3A) [µM] | IC50 (L1210) [µM] | MIC [5] [µM] | also measured
1 | CCOC(=O)c1cnc(NCc2ccccc2)nc1C | 480 | inactive | 147 | 306 | 378 |  | 
2 | COC(=O)c1c(C)nc(NCc2ccccc2)nc1-c1ccccc1 |  |  |  |  |  |  | MCC [2]: 4 µg/mL; MCC [3]: 4 µg/mL
3 | CCOC(=O)c1c(C)nc(N2CCOCC2)nc1-c1ccccc1 | ≥ 500 | inactive | ≥ 500 | > 500 | > 500 | 125 (≈ 41 µg/mL) | inhibition at […] [4]: 96%
4 | COC(=O)c1c(C)nc(Cl)nc1-c1ccccc1 |  | inactive |  |  |  |  | 
5 | O=[N+]([O-])c1cn2c(n1)OC[C@@H](OCc1ccc(OC(F)(F)F)cc1)C2 [PRETOMANID] |  |  |  |  |  | 0.48 (≈ 0.172 µg/mL) | 
6 | NNC(=O)c1ccncc1 [ISONIAZID] |  |  |  |  |  | 0.12 (≈ 0.0165 µg/mL) | 
7 | CCOC(=O)c1c(C)nc(Cl)nc1-c1ccccc1 |  | inactive |  |  |  |  | 
8 | COc1c(N2C[C@@H]3CCCN[C@@H]3C2)c(F)cc2c(=O)c(C(=O)O)cn(C3CC3)c12 [MOXIFLOXACIN] |  |  |  |  |  | 0.47 (≈ 0.189 µg/mL) | 
9 | CCOC(=O)c1c(C)nc(NCCc2c[nH]c3ccccc23)nc1-c1ccccc1 | 31 | inactive | 23 | 34 | 28 |  | 
